Where two headings read alike, the source gives them in different places.
How the values were obtained:
[1] = design: method as in Songvut et al. [2023b]; conditions: AP dose corresponding to 60 mg of andrographolide; ref Songvut et al. [2023b]; cited from earlier work
[2] = Clinical pharmacokinetics, plasma LC-MS/MS after single oral dose of AP capsules; type: in vivo, human (healthy volunteers); conditions: human, plasma; for concentration at 0 h / concentration at 0.5 h / concentration at 1 h / concentration at 1.5 h / concentration at 2 h / concentration at 2.5 h / concentration at 3 h / concentration at 3.5 h / concentration at 4 h / concentration at 5 h / concentration at 6 h / concentration at 8 h / concentration at 10 h / concentration at 12 h / concentration at 24 h: oral, 2000 mg, 2000 mg AP capsules; for concentration at 0.5 h: 0.50 h; for concentration at 1.5 h: 1.50 h; for concentration at 2.5 h: 2.50 h; for concentration at 3.5 h: 3.50 h
Experimental: The protocol was published (Tee et al. [2022]).
Seven calibrators ranging from 1, 2, 5,10, 20, 50, and 100 ng mL^−1 were prepared. Frozen plasma was thawed, vortexed-mixes, and processed via protein precipitation: 50 µL plasma plus 100 µL 0.01% ammonia in methanol were vortexed (20 s), centrifuged (14800 rpm, 5 min) and […] supernatant was transferred to 2 mL vials with inserts. LC–MS/MS injection volume: 10 µL. The separation used a Phenomenex Gemini-NX C18 column (150 × 2.1 mm, 5 μm) with 0.01% ammonia (A) and acetonitrile/methanol (1:1, B) as mobile phases (0.30 mL min^-1). The gradient program: 40% B (0 min), linear increase to 95% B (3 min), hold to 5 min, sharp decrease to 10% B (5.01 min), hold to 7 min, return to 40% B (7.01 min), and re-equilibration to 10 min. Mass detection employed an LCMS-8060NX triple quadrupole with heated ESI in negative mode, monitoring specific MRM transitions: andrographolide (349.3 → 331.2/287.1), 14-deoxyandrographolide (331.2 → 108.0/301.1), and neoandrographolide (479.1 → 317.4/161.1).
Pharmacokinetic parameters were determined from plasma samples (5 subjects, 15 time points) analyzed via LC–MS/MS (Shimadzu 8060NX). […] Specific MRM transitions for andrographolide, 14-deoxyandrographolide, and neoandrographolide in plasma samples of subjects are illustrated in Figure S3. […] The dose-dependent concentration–time curves, pharmacokinetics profiles (Fig. 2a, b and c) and comprehensive individual PK data (Table S4) provide a foundation for developing personalized AP dosing regimens, supporting its precision medicine potential.

[3] = S1, read-out: Plasma concentration
[4] = S2, read-out: Plasma concentration
[5] = S3, read-out: Plasma concentration
[6] = S4, read-out: Plasma concentration
[7] = S5, read-out: Plasma concentration
[8] = mean n=5, read-out: Mean concentration
[9] = 2000 mg AP capsules oral, fasting, n=5

## C=C1CC[C@@H]2[C@](C)(CO[C@@H]3O[C@H](CO)[C@@H](O)[C@H](O)[C@H]3O)CCC[C@@]2(C)[C@@H]1CCC1=CCOC1=O [neoandrographolide]
[1]
  Cmax, previously reported: 24.4 ± 5.6 ng/mL
  Tmax, previously reported: 54 min
[2]; [3]
  concentration at 0 h: 0 ng/mL
  concentration at 0.5 h: 13.2 ng/mL
  concentration at 1 h: 21.3 ng/mL
  concentration at 1.5 h: 41.4 ng/mL
  concentration at 2 h: 32 ng/mL
  concentration at 2.5 h: 19.7 ng/mL
  concentration at 3 h: 24.1 ng/mL
  concentration at 3.5 h: 22.2 ng/mL
  concentration at 4 h: 6.67 ng/mL
  concentration at 5 h: 11.3 ng/mL
  concentration at 6 h: 4.57 ng/mL
  concentration at 8 h: 0.97 ng/mL
  concentration at 10 h: 0 ng/mL
  concentration at 12 h: 0 ng/mL
  concentration at 24 h: 0 ng/mL
[2]; [4]
  concentration at 0 h: 0 ng/mL
  concentration at 0.5 h: 0.77 ng/mL
  concentration at 1 h: 45.3 ng/mL
  concentration at 1.5 h: 43.7 ng/mL
  concentration at 2 h: 28 ng/mL
  concentration at 2.5 h: 21.7 ng/mL
  concentration at 3 h: 36.5 ng/mL
  concentration at 3.5 h: 15.1 ng/mL
  concentration at 4 h: 12.8 ng/mL
  concentration at 5 h: 16.2 ng/mL
  concentration at 6 h: 5.29 ng/mL
  concentration at 8 h: 1.69 ng/mL
  concentration at 10 h: 0 ng/mL
  concentration at 12 h: 0 ng/mL
  concentration at 24 h: 0 ng/mL
[2]; [5]
  concentration at 0 h: 0 ng/mL
  concentration at 0.5 h: 82.9 ng/mL
  concentration at 1 h: 75.6 ng/mL
  concentration at 1.5 h: 50 ng/mL
  concentration at 2 h: 24.3 ng/mL
  concentration at 2.5 h: 13.1 ng/mL
  concentration at 3 h: 7.05 ng/mL
  concentration at 3.5 h: 0 ng/mL
  concentration at 4 h: 0 ng/mL
  concentration at 5 h: 0 ng/mL
  concentration at 6 h: 0 ng/mL
  concentration at 8 h: 0 ng/mL
  concentration at 10 h: 0 ng/mL
  concentration at 12 h: 0 ng/mL
  concentration at 24 h: 0 ng/mL
[2]; [6]
  concentration at 0 h: 0 ng/mL
  concentration at 0.5 h: 1.9 ng/mL
  concentration at 1 h: 41.1 ng/mL
  concentration at 1.5 h: 109 ng/mL
  concentration at 2 h: 78.2 ng/mL
  concentration at 2.5 h: 53.9 ng/mL
  concentration at 3 h: 43.9 ng/mL
  concentration at 3.5 h: 33.5 ng/mL
  concentration at 4 h: 21.9 ng/mL
  concentration at 5 h: 20.6 ng/mL
  concentration at 6 h: 11.9 ng/mL
  concentration at 8 h: 2.08 ng/mL
  concentration at 10 h: 0 ng/mL
  concentration at 12 h: 0 ng/mL
  concentration at 24 h: 0 ng/mL
[2]; [7]
  concentration at 0 h: 0 ng/mL
  concentration at 0.5 h: 15.4 ng/mL
  concentration at 1 h: 27.1 ng/mL
  concentration at 1.5 h: 48 ng/mL
  concentration at 2 h: 86.8 ng/mL
  concentration at 2.5 h: 65.8 ng/mL
  concentration at 3 h: 59.5 ng/mL
  concentration at 3.5 h: 31.1 ng/mL
  concentration at 4 h: 18.5 ng/mL
  concentration at 5 h: 9.61 ng/mL
  concentration at 6 h: 4.65 ng/mL
  concentration at 8 h: 1.35 ng/mL
  concentration at 10 h: 0 ng/mL
  concentration at 12 h: 0 ng/mL
  concentration at 24 h: 0 ng/mL
[2]; [8]
  concentration at 0 h: 0 ng/mL
  concentration at 0.5 h: 22.8 ng/mL
  concentration at 1 h: 42.1 ng/mL
  concentration at 1.5 h: 58.5 ng/mL
  concentration at 2 h: 49.9 ng/mL
  concentration at 2.5 h: 34.9 ng/mL
  concentration at 3 h: 34.2 ng/mL
  concentration at 3.5 h: 20.4 ng/mL
  concentration at 4 h: 12 ng/mL
  concentration at 5 h: 11.5 ng/mL
  concentration at 6 h: 5.28 ng/mL
  concentration at 8 h: 1.22 ng/mL
  concentration at 10 h: 0 ng/mL
  concentration at 12 h: 0 ng/mL
  concentration at 24 h: 0 ng/mL
[2]; [9]
  AUC(0-inf): 163 ng·h/mL
  AUC(0-t): 161 ng·h/mL
  Cmax: 58.5 ng/mL
  half-life: 55.8 min

Reference: paper PMC12935787, “Clinical pharmacokinetics and pharmacometabolomics of Andrographis paniculata capsules: Bridging drug disposition and metabolic response to precision medicine” (Naunyn-Schmiedeberg's Archives of Pharmacology, 2025)
